# Measured values from ChEMBL document CHEMBL5370687 (ACS Med Chem Lett, 2023).
# Target: T1, Protein-glutamine gamma-glutamyltransferase (Homo sapiens, UniProt P21980)
# T1 sequence (P21980 whole entry): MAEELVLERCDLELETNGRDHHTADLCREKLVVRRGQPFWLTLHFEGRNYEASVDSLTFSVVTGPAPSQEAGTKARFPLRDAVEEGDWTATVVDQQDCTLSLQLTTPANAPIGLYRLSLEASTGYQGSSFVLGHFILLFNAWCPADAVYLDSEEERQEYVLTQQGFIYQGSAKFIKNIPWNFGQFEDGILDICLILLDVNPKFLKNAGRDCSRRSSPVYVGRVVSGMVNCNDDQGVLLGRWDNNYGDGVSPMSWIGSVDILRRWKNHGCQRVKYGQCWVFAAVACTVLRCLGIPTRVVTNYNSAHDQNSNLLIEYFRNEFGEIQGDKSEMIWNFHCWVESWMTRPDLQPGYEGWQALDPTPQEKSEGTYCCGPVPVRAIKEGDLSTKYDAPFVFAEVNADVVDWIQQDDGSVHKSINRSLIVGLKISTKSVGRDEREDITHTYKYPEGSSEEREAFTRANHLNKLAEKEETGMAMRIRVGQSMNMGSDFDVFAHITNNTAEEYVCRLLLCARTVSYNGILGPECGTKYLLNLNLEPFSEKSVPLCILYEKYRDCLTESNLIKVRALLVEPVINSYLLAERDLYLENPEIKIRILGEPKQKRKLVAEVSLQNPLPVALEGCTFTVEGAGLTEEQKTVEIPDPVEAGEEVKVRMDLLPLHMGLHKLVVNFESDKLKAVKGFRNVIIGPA
# Assay: Inhibition of human recombinant His6-tagged TG2 expressed in insect cells assessed as reduction in incorporation of dansylcadaverine into N,N-dimethylcasein measured for 30 mins by fluorescence assay
# Set-up: species or system Insect cell
row,Structure (SMILES),IC50 [nM]
1,CNC(=O)C(=O)CC[C@H](NC(=O)c1[nH]c2ccccc2c1C)C(=O)Nc1cccn(CC(=O)NC2C3CC4CC(C3)CC2C4)c1=O (stereo not given in full),< 250
2,CNC(=O)C(=O)CC[C@H](NC(=O)c1oc2ccccc2c1Cl)C(=O)Nc1cccn(CC(=O)NC2C3CC4CC(C3)CC2C4)c1=O (stereo not given in full),≤ 25
3,CNC(=O)C(=O)CC[C@H](NC(=O)c1cc2cccc(F)c2s1)C(=O)Nc1cccn(CC(=O)NC2C3CC4CC(C3)CC2C4)c1=O (stereo not given in full),≤ 25
4,CNC(=O)C(=O)CC[C@H](NC(=O)c1cc2ccccc2o1)C(=O)Nc1cccn(CC(=O)NC2C3CC4CC(C3)CC2C4)c1=O (stereo not given in full),≤ 25
5,CNC(=O)C(=O)CC[C@H](NC(=O)c1cc2ccccc2[nH]1)C(=O)Nc1cccn(CC(=O)NC2C3CC4CC(C3)CC2C4)c1=O (stereo not given in full),≤ 25
6,CNC(=O)C(=O)CC[C@H](NC(=O)C1Cc2ccccc2C1)C(=O)Nc1cccn(CC(=O)NC2C3CC4CC(C3)CC2C4)c1=O (stereo not given in full),≤ 25
7,CNC(=O)C(=O)CC[C@H](NC(=O)c1cc2c(Br)cccc2o1)C(=O)Nc1cccn(CC(=O)NC2C3CC4CC(C3)CC2C4)c1=O (stereo not given in full),≤ 25
8,CNC(=O)C(=O)CC[C@H](NC(=O)c1cc2c(F)c(F)ccc2[nH]1)C(=O)Nc1cccn(CC(=O)NC2C3CC4CC(C3)CC2C4)c1=O (stereo not given in full),≤ 25
9,CNC(=O)C(=O)CC[C@H](NC(=O)c1cc2cc(Br)ccc2s1)C(=O)Nc1cccn(CC(=O)NC2C3CC4CC(C3)CC2C4)c1=O (stereo not given in full),≤ 25
10,CNC(=O)C(=O)CC[C@H](NC(=O)c1cc2ccccc2s1)C(=O)Nc1cccn(CC(=O)NC2C3CC4CC(C3)CC2C4)c1=O (stereo not given in full),≤ 25
